Data on seven compounds can be found in patent US20240239861A1, “GLUCAGON-RECEPTOR SELECTIVE POLYPEPTIDES AND METHODS OF USE THEREOF” (i2O Therapeutics, Inc., priority 2016, published 2024).

One assay deals with human GCGR (Homo sapiens, UniProt P47871). The assay is described as follows: Peptide-receptor mediated cAMP accumulation (LANCE Ultra cAMP) in CHO-K1 cells transfected with human GCGR. The assay is classed as cell-based. (Changes in cAMP serve as a functional read-out for many G protein-coupled receptors.)
Chain of human GCGR (P47871 26-477): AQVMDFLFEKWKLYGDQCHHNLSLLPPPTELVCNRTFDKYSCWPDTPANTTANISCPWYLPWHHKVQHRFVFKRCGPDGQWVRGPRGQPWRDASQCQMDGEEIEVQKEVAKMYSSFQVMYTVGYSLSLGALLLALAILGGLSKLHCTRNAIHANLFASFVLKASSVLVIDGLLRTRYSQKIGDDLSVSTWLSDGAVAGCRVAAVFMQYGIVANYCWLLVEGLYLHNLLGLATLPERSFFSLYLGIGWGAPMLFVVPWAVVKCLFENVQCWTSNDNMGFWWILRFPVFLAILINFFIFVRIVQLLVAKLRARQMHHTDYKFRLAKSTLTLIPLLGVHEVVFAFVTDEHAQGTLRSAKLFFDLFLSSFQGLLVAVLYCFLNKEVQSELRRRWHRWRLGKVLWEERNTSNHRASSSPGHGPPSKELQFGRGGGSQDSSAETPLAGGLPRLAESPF
In a further assay the target is human GLP-1R (Homo sapiens, UniProt P43220). The assay is described as follows: Peptide-receptor mediated cAMP accumulation (LANCE Ultra cAMP) in CHO-K1 cells transfected with human GLP-1R. The format is cell-based.
Chain of human GLP-1R (P43220 24-463): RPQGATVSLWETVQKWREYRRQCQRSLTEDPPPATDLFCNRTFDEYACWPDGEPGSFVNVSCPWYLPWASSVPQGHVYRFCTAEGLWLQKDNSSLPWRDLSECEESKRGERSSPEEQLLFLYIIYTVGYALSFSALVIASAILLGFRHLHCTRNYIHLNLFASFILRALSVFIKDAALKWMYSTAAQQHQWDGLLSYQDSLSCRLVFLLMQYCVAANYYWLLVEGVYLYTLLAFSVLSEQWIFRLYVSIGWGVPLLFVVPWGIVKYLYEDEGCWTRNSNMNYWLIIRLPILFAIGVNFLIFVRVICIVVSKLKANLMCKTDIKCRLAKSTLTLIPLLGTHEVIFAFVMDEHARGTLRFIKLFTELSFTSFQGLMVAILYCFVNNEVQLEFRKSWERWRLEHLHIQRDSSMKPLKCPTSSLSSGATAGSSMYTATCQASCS
Where [1] appears, read: hGLP1 pEC50 (cAMP mean (n = 3): 11 point curve starting at 1 nM, Table 3).
Setting [2] is: read-out: GluR pEC50 (converted).
Setting [3] is: Table 7, GLP-1R, read-out: GLP-1R pEC50 (converted).

Read-outs that look alike come from different tables or passages of the source. *1 amine or outer side, *2 acyl side, *3 side chain or, on linkers, in order; H or OH if unused. Where a SMILES comes first, the peptide text is derived from it. Side-chain parts run from the residue outwards. [ ]: non-standard residue; d: D form. The star is where a group is joined. γGlu = O=C(O)[C@H](CCC(=O)[*:2])N[*:1]; Palmitoyl = CCCCCCCCCCCCCCCC(=O)*; Aib = CC(C)(N)C(=O)O A value given as a limit tells only on which side of the number the result lay.

Regarding `CC(C)C[C@H](NC(=O)[C@H](Cc1c[nH]c2ccccc12)NC(=O)[C@H](CCCCN)NC(=O)[C@H](CO)NC(=O)[C@H](Cc1c[nH]cn1)NC(=O)[C@H](CC(=O)O)NC(=O)[C@H](CO)NC(=O)[C@@H](NC(=O)[C@H](Cc1ccccc1)NC(=O)[C@@H](NC(=O)CNC(=O)[C@H](Cc1c[nH]cn1)NC(=O)[C@@H](NC(=O)[C@@H](N)Cc1ccc(O)cc1)[C@@H](C)O)[C@@H](C)O)[C@@H](C)O)C(=O)N[C@@H](CC(=O)O)C(=O)N[C@@H](CCC(=O)O)C(=O)N[C@@H](C)C(=O)N[C@@H](CCCNC(=N)N)C(=O)N[C@@H](C)C(=O)N[C@@H](CCC(N)=O)C(=O)N[C@@H](CCC(=O)O)C(=O)N[C@@H](Cc1ccccc1)C(=O)N[C@H](C(=O)N[C@@H](CCCCN)C(=O)N[C@@H](Cc1c[nH]c2ccccc12)C(=O)N[C@@H](CC(C)C)C(=O)N[C@@H](CCC(=O)O)C(=O)N[C@@H](CC(=O)O)C(=O)N[C@@H](CCC(=O)O)C(=O)N1CCC[C@H]1C(=O)N[C@@H](CO)C(=O)N[C@@H](CO)C(=O)NCC(=O)N[C@@H](C)C(=O)N1CCC[C@H]1C(=O)N1CCC[C@H]1C(=O)N1CCC[C@H]1C(=O)N[C@@H](CO)C(=O)O)C(C)C` [Compound A41] (H-YTHGTFTSDHSKWLDEARAQEFVKWLEDEPSSGAPPPS-OH; N-terminus assumed), the EC50 on human GCGR (Table 3) is 0.631 nM; at human GLP-1R (setting [1]), more than 1 nM.
For the compound `CCCCCCCCCCCCCCCC(=O)N[C@@H](CCC(=O)NCCCC[C@H](NC(=O)[C@@H](NC(=O)[C@H](Cc1ccccc1)NC(=O)[C@H](CCC(=O)O)NC(=O)[C@H](CCC(N)=O)NC(=O)[C@H](C)NC(=O)[C@H](Cc1ccc(O)cc1)NC(=O)[C@H](CCCCN)NC(=O)C(C)(C)NC(=O)[C@H](CC(=O)O)NC(=O)[C@H](CC(C)C)NC(=O)[C@H](Cc1ccc(O)cc1)NC(=O)[C@H](CCCCN)NC(=O)[C@H](CO)NC(=O)[C@H](Cc1ccc(O)cc1)NC(=O)[C@H](CC(=O)O)NC(=O)[C@H](CO)NC(=O)[C@@H](NC(=O)[C@H](Cc1ccccc1)NC(=O)[C@@H](NC(=O)CNC(=O)[C@H](Cc1c[nH]cn1)NC(=O)[C@H](CO)NC(=O)[C@@H](N)Cc1ccc(O)cc1)[C@@H](C)O)[C@@H](C)O)C(C)C)C(=O)N[C@@H](Cc1c[nH]c2ccccc12)C(=O)N[C@@H](CC(C)C)C(=O)N[C@@H](CCC(=O)O)C(=O)N[C@@H](CC(=O)O)C(=O)N[C@@H](CCC(=O)O)C(=O)N1CCC[C@H]1C(=O)N[C@@H](CO)C(=O)N[C@@H](CO)C(=O)NCC(=O)N[C@@H](C)C(=O)N1CCC[C@H]1C(=O)N1CCC[C@H]1C(=O)N1CCC[C@H]1C(=O)N[C@@H](CO)C(=O)O)C(=O)O` [Compound B2], the EC50 is 0.00794 nM at human GCGR (setting [2]) and more than 1000 nM on human GLP-1R (setting [3]).
`CCCCCCCCCCCCCCCC(=O)N[C@@H](CCC(=O)NCCCC[C@H](NC(=O)[C@@H](NC(=O)[C@H](Cc1ccccc1)NC(=O)[C@H](CCC(=O)O)NC(=O)[C@H](CCC(N)=O)NC(=O)[C@H](C)NC(=O)[C@H](CCCNC(=N)N)NC(=O)[C@H](C)NC(=O)[C@H](C)NC(=O)[C@H](CC(=O)O)NC(=O)[C@H](CC(C)C)NC(=O)[C@H](Cc1ccc(O)cc1)NC(=O)[C@H](CCCCN)NC(=O)[C@H](CO)NC(=O)[C@H](Cc1ccc(O)cc1)NC(=O)[C@H](CC(=O)O)NC(=O)[C@H](CO)NC(=O)[C@@H](NC(=O)[C@H](Cc1ccccc1)NC(=O)[C@@H](NC(=O)CNC(=O)[C@H](CCC(N)=O)NC(=O)[C@H](CO)NC(=O)[C@@H](N)Cc1ccc(O)cc1)[C@@H](C)O)[C@@H](C)O)C(C)C)C(=O)N[C@@H](Cc1c[nH]c2ccccc12)C(=O)N[C@@H](CC(C)C)C(=O)N[C@@H](CCC(=O)O)C(=O)N[C@@H](CC(=O)O)C(=O)N[C@@H](CCC(=O)O)C(=O)N1CCC[C@H]1C(=O)N[C@@H](CCCCN)C(=O)N[C@@H](CO)C(=O)N[C@@H](CCCCN)C(=O)N[C@@H](CO)C(=O)N1CCC[C@H]1C(=O)N1CCC[C@H]1C(=O)N1CCC[C@H]1C(=O)N[C@@H](CO)C(N)=O)C(=O)O` [Compound B34] (H-YSQGTFTSDYSKYLDAARAQEFVK([γGlu-Palmitoyl])WLEDEPKSKSPPPS-NH2): the values for the EC50 on human GCGR (setting [2]) and at human GLP-1R (setting [3]) were 0.158 nM and more than 1000 nM, respectively.
Consider `CC(C)C[C@H](NC(=O)[C@H](Cc1ccc(O)cc1)NC(=O)[C@H](CCCCN)NC(=O)[C@H](CO)NC(=O)[C@H](Cc1ccc(O)cc1)NC(=O)[C@H](CC(=O)O)NC(=O)[C@H](CO)NC(=O)[C@@H](NC(=O)[C@H](Cc1ccccc1)NC(=O)[C@@H](NC(=O)CNC(=O)[C@H](Cc1c[nH]cn1)NC(=O)[C@H](CO)NC(=O)[C@@H](N)Cc1ccc(O)cc1)[C@@H](C)O)[C@@H](C)O)C(=O)N[C@@H](CC(=O)O)C(=O)NC(C)(C)C(=O)N[C@@H](CCCCN)C(=O)N[C@@H](CCCNC(=N)N)C(=O)N[C@@H](C)C(=O)N[C@@H](CCC(N)=O)C(=O)N[C@@H](CCC(=O)O)C(=O)N[C@@H](Cc1ccccc1)C(=O)N[C@H](C(=O)NC(C)(C)C(=O)N[C@@H](Cc1c[nH]c2ccccc12)C(=O)N[C@@H](CC(C)C)C(=O)N[C@@H](CCC(=O)O)C(=O)N[C@@H](CC(=O)O)C(=O)N[C@@H](CCC(=O)O)C(=O)N[C@@H](CCCCN)C(=O)N[C@@H](CCCNC(=N)N)C(=O)N[C@@H](CC(N)=O)C(=O)N[C@@H](CCCCN)C(=O)N1CCC[C@H]1C(=O)N1CCC[C@H]1C(=O)N1CCC[C@H]1C(=O)N[C@@H](CO)C(=O)O)C(C)C` [Compound A50] (H-YSHGTFTSDYSKYLD[Aib]KRAQEFV[Aib]WLEDEKRNKPPPS-OH; N-terminus assumed), for which the EC50 was 0.00316 nM at human GCGR (Table 3) and more than 1 nM at human GLP-1R (setting [1]).
On the same counts, the results for `CC(C)C[C@H](NC(=O)[C@H](Cc1ccc(O)cc1)NC(=O)[C@H](CCCCN)NC(=O)[C@H](CO)NC(=O)[C@H](Cc1ccc(O)cc1)NC(=O)[C@H](CC(=O)O)NC(=O)[C@H](CO)NC(=O)[C@@H](NC(=O)[C@H](Cc1ccccc1)NC(=O)[C@@H](NC(=O)CNC(=O)[C@H](Cc1c[nH]cn1)NC(=O)[C@H](CO)NC(=O)[C@@H](N)Cc1ccc(O)cc1)[C@@H](C)O)[C@@H](C)O)C(=O)N[C@@H](CC(=O)O)C(=O)NC(C)(C)C(=O)N[C@@H](C)C(=O)N[C@@H](CCCNC(=N)N)C(=O)N[C@@H](C)C(=O)N[C@@H](CCC(N)=O)C(=O)N[C@@H](CCC(=O)O)C(=O)N[C@@H](Cc1ccccc1)C(=O)N[C@H](C(=O)NC(C)(C)C(=O)N[C@@H](Cc1c[nH]c2ccccc12)C(=O)N[C@@H](CC(C)C)C(=O)N[C@@H](CCC(=O)O)C(=O)N[C@@H](CC(=O)O)C(=O)N[C@@H](CCC(=O)O)C(=O)N1CCC[C@H]1C(=O)N[C@@H](CCCCN)C(=O)N[C@@H](CO)C(=O)N[C@@H](CCCCN)C(=O)N[C@@H](CCC(=O)O)C(=O)N1CCC[C@H]1C(=O)N1CCC[C@H]1C(=O)N1CCC[C@H]1C(=O)N[C@@H](CO)C(N)=O)C(C)C` [Compound A68] (H-YSHGTFTSDYSKYLD[Aib]ARAQEFV[Aib]WLEDEPKSKEPPPS-NH2; N-terminus assumed) are 0.00501 nM and more than 1 nM.
Taken in the same sequence, the figures for `CC(C)C[C@H](NC(=O)[C@H](Cc1ccc(O)cc1)NC(=O)[C@H](CCCCN)NC(=O)[C@H](CO)NC(=O)[C@H](Cc1ccc(O)cc1)NC(=O)[C@H](CC(=O)O)NC(=O)[C@H](CO)NC(=O)[C@@H](NC(=O)[C@H](Cc1ccccc1)NC(=O)[C@@H](NC(=O)CNC(=O)[C@H](Cc1c[nH]cn1)NC(=O)[C@H](CO)NC(=O)[C@@H](N)Cc1ccc(O)cc1)[C@@H](C)O)[C@@H](C)O)C(=O)N[C@@H](CC(=O)O)C(=O)NC(C)(C)C(=O)N[C@@H](CCCCN)C(=O)N[C@@H](CCCNC(=N)N)C(=O)N[C@@H](C)C(=O)N[C@@H](CCC(N)=O)C(=O)N[C@@H](CCC(=O)O)C(=O)N[C@@H](Cc1ccccc1)C(=O)N[C@H](C(=O)NC(C)(C)C(=O)N[C@@H](Cc1c[nH]c2ccccc12)C(=O)N[C@@H](CC(C)C)C(=O)N[C@@H](CCC(=O)O)C(=O)N[C@@H](CC(=O)O)C(=O)N[C@@H](CCC(=O)O)C(=O)N1CCC[C@H]1C(=O)N[C@@H](CO)C(=O)N[C@@H](CO)C(=O)N[C@@H](CCCCN)C(=O)N[C@@H](C)C(=O)N1CCC[C@H]1C(=O)N1CCC[C@H]1C(=O)N1CCC[C@H]1C(=O)N[C@@H](CO)C(=O)O)C(C)C` [Compound A23] (H-YSHGTFTSDYSKYLD[Aib]KRAQEFV[Aib]WLEDEPSSKAPPPS-OH; N-terminus assumed) were 0.00631 nM and more than 1 nM.
Taken in the same sequence, the figures for `CC(C)C[C@H](NC(=O)[C@H](Cc1ccc(O)cc1)NC(=O)[C@H](CCCCN)NC(=O)[C@H](CO)NC(=O)[C@H](Cc1ccc(O)cc1)NC(=O)[C@H](CC(=O)O)NC(=O)[C@H](CO)NC(=O)[C@@H](NC(=O)[C@H](Cc1ccccc1)NC(=O)[C@@H](NC(=O)CNC(=O)[C@H](Cc1c[nH]cn1)NC(=O)[C@@H](NC(=O)[C@@H](N)Cc1ccc(O)cc1)[C@@H](C)O)[C@@H](C)O)[C@@H](C)O)C(=O)N[C@@H](CC(=O)O)C(=O)NC(C)(C)C(=O)N[C@@H](C)C(=O)N[C@@H](CCCNC(=N)N)C(=O)N[C@@H](C)C(=O)N[C@@H](CCC(N)=O)C(=O)N[C@@H](CCC(=O)O)C(=O)N[C@@H](Cc1ccccc1)C(=O)N[C@H](C(=O)NC(C)(C)C(=O)N[C@@H](Cc1c[nH]c2ccccc12)C(=O)N[C@@H](CC(C)C)C(=O)N[C@@H](CCC(=O)O)C(=O)N[C@@H](CC(=O)O)C(=O)N[C@@H](CCC(=O)O)C(=O)N1CCC[C@H]1C(=O)N[C@@H](CO)C(=O)N[C@@H](CO)C(=O)NCC(=O)N[C@@H](C)C(=O)N1CCC[C@H]1C(=O)N1CCC[C@H]1C(=O)N1CCC[C@H]1C(=O)N[C@@H](CO)C(=O)O)C(C)C` [Compound A64] (H-YTHGTFTSDYSKYLD[Aib]ARAQEFV[Aib]WLEDEPSSGAPPPS-OH; N-terminus assumed) were 0.02 nM and more than 1 nM.
